Experimental data published in ChEMBL document CHEMBL6127119 (J Med Chem, 2024).
In brackets after ≈: the same amount, converted by molar mass.

How the values were obtained:
Type in all cases: functional
Details in all cases: time 16-24 hrs
Escherichia coli = test: Antibacterial activity against Escherichia coli AB1157 incubated for 16 to 24 hrs by CLSI based broth microdilution method
Enterococcus faecium [1] = test: Antibacterial activity against vancomycin-resistant Enterococcus faecium harboring VanM phenotype incubated for 16 to 24 hrs by CLSI based broth microdilution method
Staphylococcus aureus [2] = test: Antibacterial activity against vancomycin-intermediate Staphylococcus aureus incubated for 16 to 24 hrs by CLSI based broth microdilution method
Klebsiella pneumoniae = test: Antibacterial activity against Klebsiella pneumoniae clinical isolate incubated for 16 to 24 hrs by CLSI based broth microdilution method
Acinetobacter baumannii = test: Antibacterial activity against Carbapenem-resistant Acinetobacter baumannii clinical isolate incubated for 16 to 24 hrs by CLSI based broth microdilution method
Pseudomonas aeruginosa = test: Antibacterial activity against Pseudomonas aeruginosa PAO1 incubated for 16 to 24 hrs by CLSI based broth microdilution method
Enterococcus faecium [3] = test: Antibacterial activity against vancomycin-resistant Enterococcus faecium harboring VanA phenotype incubated for 16 to 24 hrs by CLSI based broth microdilution method
Staphylococcus aureus [4] = test: Antibacterial activity against methicillin-susceptible Staphylococcus aureus incubated for 16 to 24 hrs by CLSI based broth microdilution method
Enterococcus faecium [5] = test: Antibacterial activity against vancomycin-resistant Enterococcus faecium harboring VanB phenotype incubated for 16 to 24 hrs by CLSI based broth microdilution method

Row | SMILES | MIC (Escherichia coli) | MIC (Enterococcus faecium [1]) | MIC (Staphylococcus aureus [2]) | MIC (Klebsiella pneumoniae) | MIC (Acinetobacter baumannii) | MIC (Pseudomonas aeruginosa) | MIC (Enterococcus faecium [3]) | MIC (Staphylococcus aureus [4]) | MIC (Enterococcus faecium [5])
1 | CC(C)C[C@@H](N)C(=O)N[C@H]1C(=O)N[C@@H](CC(N)=O)C(=O)N[C@H]2C(=O)N[C@H]3C(=O)N[C@H](C(=O)N[C@H](C(=O)O)c4cc(O)c(CNCCCCCCCCN)c(O)c4-c4cc3ccc4O)[C@H](O)c3ccc(c(Cl)c3)Oc3cc2cc(c3O[C@@H]2O[C@H](CO)[C@@H](O)[C@H](O)[C@H]2O[C@H]2C[C@](C)(N)[C@H](O)[C@H](C)O2)Oc2ccc(cc2Cl)[C@H]1O | 128 µg/mL (≈ 80.4 µM) | 128 µg/mL (≈ 80.4 µM) | 4 µg/mL (≈ 2.51 µM) | > 128 µg/mL | 128 µg/mL (≈ 80.4 µM) | 128 µg/mL (≈ 80.4 µM) | 128 µg/mL (≈ 80.4 µM) | 4 µg/mL (≈ 2.51 µM) | 64 µg/mL (≈ 40.2 µM)
2 | CN[C@H](CC(C)C)C(=O)N[C@H]1C(=O)N[C@@H](CC(N)=O)C(=O)N[C@H]2C(=O)N[C@H]3C(=O)N[C@H](C(=O)N[C@H](C(=O)O)c4cc(O)c(CNCCCCCCCCN)c(O)c4-c4cc3ccc4O)[C@H](O)c3ccc(c(Cl)c3)Oc3cc2cc(c3O[C@@H]2O[C@H](CO)[C@@H](O)[C@H](O)[C@H]2O[C@H]2C[C@](C)(N)[C@H](O)[C@H](C)O2)Oc2ccc(cc2Cl)[C@H]1O | 128 µg/mL (≈ 79.7 µM) | 128 µg/mL (≈ 79.7 µM) | 8 µg/mL (≈ 4.98 µM) | > 128 µg/mL | 128 µg/mL (≈ 79.7 µM) | 128 µg/mL (≈ 79.7 µM) | 128 µg/mL (≈ 79.7 µM) | 4 µg/mL (≈ 2.49 µM) | 32 µg/mL (≈ 19.9 µM)
3 | CN[C@H](CC(C)C)C(=O)N[C@H]1C(=O)N[C@@H](CC(N)=O)C(=O)N[C@H]2C(=O)N[C@H]3C(=O)N[C@H](C(=O)N[C@H](C(=O)N[C@H](CCCNC(=N)N)C(N)=O)c4cc(O)cc(O)c4-c4cc3ccc4O)[C@H](O)c3ccc(c(Cl)c3)Oc3cc2cc(c3O[C@@H]2O[C@H](CO)[C@@H](O)[C@H](O)[C@H]2O[C@H]2C[C@](C)(N)[C@H](O)[C@H](C)O2)Oc2ccc(cc2Cl)[C@H]1O | 8 µg/mL (≈ 4.99 µM) | 32 µg/mL (≈ 19.9 µM) | 1 µg/mL (≈ 0.623 µM) | 128 µg/mL (≈ 79.8 µM) | 32 µg/mL (≈ 19.9 µM) | > 128 µg/mL | 8 µg/mL (≈ 4.99 µM) | 0.5 µg/mL (≈ 0.312 µM) | 16 µg/mL (≈ 9.97 µM)
4 | Cc1ccc(-c2ccc(CNC(=O)[C@H]3NC(=O)[C@H]4NC(=O)[C@H](NC(=O)[C@@H]5NC(=O)[C@H](CC(N)=O)NC(=O)[C@H](NC(=O)[C@H](N)CC(C)C)[C@H](O)c6ccc(c(Cl)c6)Oc6cc5cc(c6O[C@@H]5O[C@H](CO)[C@@H](O)[C@H](O)[C@H]5O[C@H]5C[C@](C)(N)[C@H](O)[C@H](C)O5)Oc5ccc(cc5Cl)[C@H]4O)c4ccc(O)c(c4)-c4c(O)cc(O)cc43)cc2)cc1 | 128 µg/mL (≈ 79.3 µM) | 8 µg/mL (≈ 4.96 µM) | 0.5 µg/mL (≈ 0.31 µM) | > 128 µg/mL | > 128 µg/mL | > 128 µg/mL | 8 µg/mL (≈ 4.96 µM) | 0.125 µg/mL (≈ 0.0774 µM) | 2 µg/mL (≈ 1.24 µM)
5 | CC(C)C[C@@H](N)C(=O)N[C@H]1C(=O)N[C@@H](CC(N)=O)C(=O)N[C@H]2C(=O)N[C@H]3C(=O)N[C@H](C(=O)N[C@H](C(=O)NCCNC(=N)N)c4cc(O)cc(O)c4-c4cc3ccc4O)[C@H](O)c3ccc(c(Cl)c3)Oc3cc2cc(c3O[C@@H]2O[C@H](CO)[C@@H](O)[C@H](O)[C@H]2O[C@H]2C[C@](C)(N)[C@H](O)[C@H](C)O2)Oc2ccc(cc2Cl)[C@H]1O | 32 µg/mL (≈ 21.1 µM) | 32 µg/mL (≈ 21.1 µM) | 2 µg/mL (≈ 1.32 µM) | > 128 µg/mL | 128 µg/mL (≈ 84.2 µM) | > 128 µg/mL | 32 µg/mL (≈ 21.1 µM) | 0.5 µg/mL (≈ 0.329 µM) | 128 µg/mL (≈ 84.2 µM)
6 | CC(C)C[C@@H](N)C(=O)N[C@H]1C(=O)N[C@@H](CC(N)=O)C(=O)N[C@H]2C(=O)N[C@H]3C(=O)N[C@H](C(=O)N[C@H](C(=O)NCCOCCOCCNC(=N)N)c4cc(O)cc(O)c4-c4cc3ccc4O)[C@H](O)c3ccc(c(Cl)c3)Oc3cc2cc(c3O[C@@H]2O[C@H](CO)[C@@H](O)[C@H](O)[C@H]2O[C@H]2C[C@](C)(N)[C@H](O)[C@H](C)O2)Oc2ccc(cc2Cl)[C@H]1O | 16 µg/mL (≈ 9.95 µM) | 64 µg/mL (≈ 39.8 µM) | 4 µg/mL (≈ 2.49 µM) | > 128 µg/mL | > 128 µg/mL | > 128 µg/mL | 32 µg/mL (≈ 19.9 µM) | 1 µg/mL (≈ 0.622 µM) | 64 µg/mL (≈ 39.8 µM)
